These results are taken from ChEMBL document CHEMBL1128661, “Vasorelaxant activity of 2-fluoroalkyl-6-nitro-2H-1-benzopyran-4-carbothioamide and -carboxamide K+ channel openers” (Bioorg Med Chem Lett, 1995).

Assay [1] is filed under the species Rattus norvegicus. In words: Negative logarithm of the molar concentration required to relax rat aorta precontracted with 30 mM KCI by 50% of IA. The assay is classed as functional, organism-based.
For assay [2], the species on record is Rattus norvegicus. In words: Intrinsic vasorelaxant activity tested in rat aorta. The assay is classed as functional.

For orientation: EC50 means the midpoint of the concentration-response curve. Low readings indicate an effect from little substance, high ones a need for much substance.

The compound `CC1(C)C=C(C(=O)NCCC#N)c2cc([N+](=O)[O-])ccc2O1` had an EC50 in the assay filed under Rattus norvegicus [1] of 2.82 nM. In the assay filed under Rattus norvegicus [2], this compound had an Intrinsic activity of 73.1%. `CNC(=O)C1=CC(C)(C)Oc2ccc([N+](=O)[O-])cc21` registered an Intrinsic activity in the assay filed under Rattus norvegicus [2] of 61%. Turning to `C/N=C(/S)C1=CC2(CCCC2)Oc2ccc([N+](=O)[O-])cc21`, in the assay listed under Rattus norvegicus [1], the EC50 was 0.0209 nM. In the case of `N#CCC/N=C(\S)C1=CC(CF)(CF)Oc2ccc([N+](=O)[O-])cc21`, the response in the assay listed under Rattus norvegicus [1] was half-maximal at 0.141 nM (EC50). In the assay listed under Rattus norvegicus [2], this compound came in with an Intrinsic activity of 72.5%.

For the compound `C/N=C(/S)C1=CC(C)(C)Oc2ccc([N+](=O)[O-])cc21`, the Intrinsic activity in the assay listed under Rattus norvegicus [2] is listed as 63.5%. Consider `C/N=C(/S)C1=CC(C)(CF)Oc2ccc([N+](=O)[O-])cc21` (configuration not stated), for which the EC50 in the assay filed under Rattus norvegicus [1] was 1.62 nM. Also, in the assay filed under Rattus norvegicus [2], the Intrinsic activity stood at 77.1%.

As for `CC1(C)C=C(/C(S)=N\CCC#N)c2cc([N+](=O)[O-])ccc2O1`, the EC50 in the assay listed under Rattus norvegicus [1] is 0.372 nM. The Intrinsic activity in the assay listed under Rattus norvegicus [2] turned out to be 78.5%. The matching figures for `CC1(CF)C=C(C(=O)NCCC#N)c2cc([N+](=O)[O-])ccc2O1` (configuration not stated): 3.98 nM and 71%.

The compound `N#CCCNC(=O)C1=CC(C(F)(F)F)(C(F)(F)F)Oc2ccc([N+](=O)[O-])cc21` gave an EC50 in the assay listed under Rattus norvegicus [1] of 0.49 nM. Moreover, the Intrinsic activity in the assay filed under Rattus norvegicus [2] is listed as 64.1%. In the case of `CC1(C(F)(F)F)C=C(/C(S)=N\CCC#N)c2cc([N+](=O)[O-])ccc2O1` (configuration not stated), the EC50 in the assay listed under Rattus norvegicus [1] is 0.363 nM. Moreover, the Intrinsic activity in the assay filed under Rattus norvegicus [2] is 69.7%.

`CNC(=O)C1=CC(C(F)(F)F)(C(F)(F)F)Oc2ccc([N+](=O)[O-])cc21`: in the assay filed under Rattus norvegicus [1], it took 1.48 nM to reach a half-maximal effect (EC50). Besides, in the assay listed under Rattus norvegicus [2], the Intrinsic activity came out at 57.9%.

`C/N=C(/S)C1=CC(CF)(CF)Oc2ccc([N+](=O)[O-])cc21` gave an EC50 in the assay filed under Rattus norvegicus [1] of 0.479 nM. Also, in the assay filed under Rattus norvegicus [2], the Intrinsic activity is 74.5%.

`C/N=C(/S)C1=CC2(CCC2)Oc2ccc([N+](=O)[O-])cc21` had an EC50 in the assay filed under Rattus norvegicus [1] of 0.0251 nM.

The compound `CC1(CF)C=C(/C(S)=N\CCC#N)c2cc([N+](=O)[O-])ccc2O1` (configuration not stated) showed a half-maximal effective concentration (EC50) in the assay filed under Rattus norvegicus [1] of 1.86 nM. This compound yielded an Intrinsic activity in the assay filed under Rattus norvegicus [2] of 59.6%. The matching figures for `N#CCCNC(=O)C1=CC(CF)(CF)Oc2ccc([N+](=O)[O-])cc21`: 2.24 nM and 72.3%. The corresponding values for `N#CCC/N=C(/S)C1=CC(C(F)(F)F)(C(F)(F)F)Oc2ccc([N+](=O)[O-])cc21` are 0.437 nM and 74.8%. The corresponding values for `CNC(=O)C1=CC(C)(C(F)(F)F)Oc2ccc([N+](=O)[O-])cc21` (configuration not stated) are 2.69 nM and 61.7%. Regarding `CNC(=O)C1=CC(C)(CF)Oc2ccc([N+](=O)[O-])cc21` (configuration not stated), the EC50 in the assay filed under Rattus norvegicus [1] was 8.91 nM. This compound showed an Intrinsic activity in the assay listed under Rattus norvegicus [2] of 66%. The matching figures for `C/N=C(/S)C1=CC(C)(C(F)(F)F)Oc2ccc([N+](=O)[O-])cc21` (configuration not stated): 0.302 nM and 62.5%. The corresponding values for `CC1(C(F)(F)F)C=C(C(=O)NCCC#N)c2cc([N+](=O)[O-])ccc2O1` (configuration not stated) are 0.692 nM and 70.6%. The corresponding values for `C/N=C(/S)C1=CC(C(F)(F)F)(C(F)(F)F)Oc2ccc([N+](=O)[O-])cc21` are 0.631 nM and 68%.

The compound `CNC(=O)C1=CC(CF)(CF)Oc2ccc([N+](=O)[O-])cc21` showed an EC50 in the assay listed under Rattus norvegicus [1] of 5.13 nM. Further, the Intrinsic activity in the assay listed under Rattus norvegicus [2] is reported as 70.7%. Compound `CC1(C)Oc2ccc(C#N)cc2[C@@H](N2CCCC2=O)[C@@H]1O` [CROMAKALIM] registered an Intrinsic activity in the assay listed under Rattus norvegicus [2] of 74.7%. For the compound `CC(N/C(=N\C#N)Nc1ccncc1)C(C)(C)C` (configuration not stated) [PINACIDIL ANHYDROUS], the Intrinsic activity in the assay filed under Rattus norvegicus [2] came out at 91.9%.
